Experimental data from ChEMBL document CHEMBL1201862, “PubChem BioAssay data set” (2004).
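Following 48 hours of exposure in 96-well plates, responses at five concentrations were used to interpolate endpoints linearly. GI50: concentration for 50% inhibition of growth.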 The source made the active and inactive calls. Rule as the data show it: active = GI50 up to about 1.1 µM and inactive = higher.

Tests used:
Experiment in all cases: NCI anticancer screen, dose series, 48 h
[1] = system: DMS-114
[2] = system: DLD-1
[3] = system: XF498
[4] = system: KM-20L2
[5] = system: LXFL 529
[6] = system: HOP-18
[7] = system: DMS-273
[8] = system: SNB-78
[9] = system: RXF 631

Row | Compound | GI50 [1] | GI50 [2] | GI50 [3] | GI50 [4] | GI50 [5] | GI50 [6] | GI50 [7] | GI50 [8] | GI50 [9]
1 | COc1cc(C(=O)c2cocc2C(=O)c2ccc3c(c2)OCO3)cc(OC)c1OC | 0.753 µM (active) | 0.867 µM (active) | 1.34 µM (inactive) | 0.596 µM (active) | 0.871 µM (active) | > 51.1 µM (inactive) | 0.729 µM (active) |  | 
2 | CCOC(=O)C1=C(Nc2ccc(Cl)cc2Cl)OCC1=O |  | > 100 µM (inactive) | > 100 µM (inactive) | > 100 µM (inactive) | > 100 µM (inactive) |  | > 100 µM (inactive) | > 100 µM (inactive) | > 100 µM (inactive)
3 | O=C(C#Cc1ccccc1)N1c2ccccc2CC1c1c[nH]c2ccccc12 (configuration not stated) | 12.7 µM (inactive) | 2.07 µM (inactive) |  | 21.9 µM (inactive) | 12.3 µM (inactive) |  | 12.7 µM (inactive) | 13 µM (inactive) | 14.3 µM (inactive)
4 | CCC1(Br)C(=O)NC(=O)N(C2CC(O)C(CO)O2)C1N=[N+]=[N-] (configuration not stated) | 72.1 µM (inactive) | > 100 µM (inactive) | > 100 µM (inactive) | > 100 µM (inactive) | > 100 µM (inactive) |  | > 100 µM (inactive) | > 100 µM (inactive) | 
5 | CC1=CC2C(C=C1)S(=O)(=O)N1CC21c1ccccc1 (configuration not stated) | 21.4 µM (inactive) | > 100 µM (inactive) |  | > 100 µM (inactive) | > 100 µM (inactive) | 54 µM (inactive) | > 100 µM (inactive) | > 100 µM (inactive) | 
6 | NC(=O)C(=Cc1ccc(C(O)P(=O)(O)O)cc1)C(N)=O (configuration not stated) | > 100 µM (inactive) | > 100 µM (inactive) | > 100 µM (inactive) | > 100 µM (inactive) | > 100 µM (inactive) | > 100 µM (inactive) | > 100 µM (inactive) | > 100 µM (inactive) | > 100 µM (inactive)
7 | Cc1cc(NS(=O)(=O)c2ccc(Nc3c4ccccc4nc4c(C(=O)Nc5ccc(S(=O)(=O)N=C(N)N)cc5)cccc34)cc2)no1 | > 100 µM (inactive) | > 100 µM (inactive) | > 100 µM (inactive) | > 100 µM (inactive) | > 100 µM (inactive) | > 100 µM (inactive) | > 100 µM (inactive) | > 100 µM (inactive) | > 100 µM (inactive)
8 | OCC(O)C(O)c1nn(-c2ccccc2)c2nc3cc(Cl)c(Cl)cc3nc12 (configuration not stated) | 21 µM (inactive) | 26.1 µM (inactive) | 28.5 µM (inactive) | 26.7 µM (inactive) | 20.6 µM (inactive) | 26.7 µM (inactive) | 15.7 µM (inactive) | 50.2 µM (inactive) | 18.9 µM (inactive)
9 | CC(C)c1ccc(/C=C/c2cc(C(=O)NNC(=O)NC3CCCCC3)nc(S)n2)cc1 | > 100 µM (inactive) | > 100 µM (inactive) | > 100 µM (inactive) | > 100 µM (inactive) | > 100 µM (inactive) | > 100 µM (inactive) | > 100 µM (inactive) | > 100 µM (inactive) | > 100 µM (inactive)
10 | C/N=C(\S)N/N=C/C(C)=N/N/C(S)=N/C | 0.0414 µM (active) |  |  | 0.631 µM (active) |  | > 100 µM (inactive) | > 100 µM (inactive) | > 100 µM (inactive) | 
11 | Cn1cc2ccccc2c1-c1nc(F)nc(F)n1 | > 100 µM (inactive) | > 100 µM (inactive) | 23.9 µM (inactive) | > 100 µM (inactive) | > 100 µM (inactive) |  | > 100 µM (inactive) | > 100 µM (inactive) | 
12 | Cc1ccc(C)c(N2C(=O)C(=O)C(c3nc4ccccc4s3)/C(=N/N)C2=O)c1 (configuration not stated) | > 100 µM (inactive) | > 100 µM (inactive) | > 100 µM (inactive) | > 100 µM (inactive) | > 100 µM (inactive) |  | > 100 µM (inactive) | > 100 µM (inactive) | 
13 | Cc1ccc(S(=O)(=O)O/N=C2\CCC\C2=C/c2ccccc2)cc1 |  | 19.1 µM (inactive) | 18.5 µM (inactive) | 22.1 µM (inactive) | 16.6 µM (inactive) | 20.3 µM (inactive) | 32.8 µM (inactive) | 1.31 µM (inactive) | 16.9 µM (inactive)
14 | N#CC(C(=O)CCCC(=O)Nc1ccccc1[N+](=O)[O-])c1c(Cl)cccc1Cl (configuration not stated) | > 100 µM (inactive) | > 100 µM (inactive) | > 100 µM (inactive) | > 100 µM (inactive) | > 100 µM (inactive) | 31 µM (inactive) | > 100 µM (inactive) | > 100 µM (inactive) | > 100 µM (inactive)
